ChEMBL document CHEMBL1938345, “Design, synthesis and cytotoxic activity of novel spin-labeled rotenone derivatives” (Bioorg Med Chem Lett, 2012)
≈ marks a conversion by molar mass, not a printed value.

How the values were obtained:
Assay type in all cases: functional, cell-based
[1] = Cytotoxicity against human KBVIN cells by SRB assay
KB = assay: Cytotoxicity against human KB cells by SRB assay
DU-145 = assay: Cytotoxicity against human DU145 cells by SRB assay
A549 = assay: Cytotoxicity against human A549 cells by SRB assay
[2] = Homo sapiens, KBVIN, read-out: IC50
[3] = Homo sapiens, KB, read-out: IC50
[4] = Homo sapiens, DU-145, read-out: IC50

`C=C(C)[C@H]1Cc2c(ccc3c2O[C@@H]2COc4cc(OC)c(OC)cc4[C@@H]2[C@@H]3OC(=O)C2CC(C)(C)N([O])C(C)(C)C2)O1` showed an IC50 ([1]; kbvin) of 0.092 µg/mL (≈ 0.159 µM), an IC50 (KB; kb) of 0.408 µg/mL (≈ 0.705 µM) and an IC50 (DU-145; du-145) of 0.266 µg/mL (≈ 0.46 µM). It also gave an IC50 (A549; a549) of 0.523 µg/mL (≈ 0.904 µM).

Compound `C=C(C)[C@H]1Cc2c(ccc3c2O[C@@H]2COc4cc(OC)c(OC)cc4[C@@H]2[C@@H]3OC(=O)CNC(=O)OC2CC(C)(C)N([O])C(C)(C)C2)O1` has an IC50 ([1]; kbvin) of 0.41 µg/mL (≈ 0.629 µM), an IC50 (KB; kb) of 0.51 µg/mL (≈ 0.783 µM) and an IC50 (DU-145; du-145) of 0.45 µg/mL (≈ 0.69 µM). The IC50 (A549; a549) was 0.624 µg/mL (≈ 0.957 µM).

`C=C(C)[C@H]1Cc2c(ccc3c2O[C@@H]2COc4cc(OC)c(OC)cc4[C@@H]2/C3=N\OC(=O)C2=CC(C)(C)N([O])C(C)(C)C2)O1` gave an IC50 ([1]; kbvin) of 0.162 µg/mL (≈ 0.275 µM), an IC50 (KB; kb) of 0.575 µg/mL (≈ 0.975 µM) and an IC50 (DU-145; du-145) of 0.358 µg/mL (≈ 0.607 µM). For the same compound, the IC50 (A549; a549) was 0.542 µg/mL (≈ 0.919 µM).

With `C=C(C)[C@H]1Cc2c(ccc3c2O[C@@H]2COc4cc(OC)c(OC)cc4[C@@H]2[C@@H]3OC(=O)C2=CC(C)(C)N([O])C2(C)C)O1` the IC50 ([1]; kbvin) was 0.075 µg/mL (≈ 0.133 µM), the IC50 (KB; kb) was 0.273 µg/mL (≈ 0.485 µM) and the IC50 (DU-145; du-145) was 0.223 µg/mL (≈ 0.396 µM). It also gave an IC50 (A549; a549) of 0.408 µg/mL (≈ 0.725 µM).

Compound `C=C(C)[C@H]1Cc2c(ccc3c2O[C@@H]2COc4cc(OC)c(OC)cc4[C@@H]2[C@@H]3OC(=O)[C@H](CC(C)C)NC(=O)OC2CC(C)(C)N([O])C(C)(C)C2)O1` has an IC50 ([1]; kbvin) of 0.355 µg/mL (≈ 0.502 µM), an IC50 (KB; kb) of 0.483 µg/mL (≈ 0.682 µM) and an IC50 (DU-145; du-145) of 0.443 µg/mL (≈ 0.626 µM). The IC50 (A549; a549) was 0.521 µg/mL (≈ 0.736 µM).

For `C=C(C)[C@H]1Cc2c(ccc3c2O[C@@H]2COc4cc(OC)c(OC)cc4[C@@H]2[C@@H]3OC(=O)[C@H](C)NC(=O)OC2CC(C)(C)N([O])C(C)(C)C2)O1`, the IC50 ([1]; kbvin) was 0.357 µg/mL (≈ 0.536 µM), the IC50 (KB; kb) was 0.442 µg/mL (≈ 0.664 µM) and the IC50 (DU-145; du-145) was 0.417 µg/mL (≈ 0.626 µM). The IC50 (A549; a549) was 0.65 µg/mL (≈ 0.976 µM).

In the case of `CC(=O)O[C@H]1C(=O)[C@@]2(C)[C@H]([C@H](OC(=O)c3ccccc3)[C@]3(O)C[C@H](OC(=O)[C@H](O)[C@@H](NC(=O)c4ccccc4)c4ccccc4)C(C)=C1C3(C)C)[C@]1(OC(C)=O)CO[C@@H]1C[C@@H]2O` [PACLITAXEL], the IC50 [1, 2] is reported as 1.15 µg/mL (≈ 1.34 µM), the IC50 (KB; [3]) is reported as 0.0048 µg/mL (≈ 0.00562 µM) and the IC50 (DU-145; [4]) is reported as 0.0037 µg/mL (≈ 0.00433 µM).

`C=C(C)[C@H]1Cc2c(ccc3c2O[C@@H]2COc4cc(OC)c(OC)cc4[C@@H]2[C@@H]3OC(=O)[C@H](Cc2ccccc2)NC(=O)OC2CC(C)(C)N([O])C(C)(C)C2)O1` showed an IC50 ([1]; kbvin) of 0.383 µg/mL (≈ 0.516 µM), an IC50 (KB; kb) of 0.509 µg/mL (≈ 0.686 µM) and an IC50 (DU-145; du-145) of 0.462 µg/mL (≈ 0.623 µM). It also gave an IC50 (A549; a549) of 0.713 µg/mL (≈ 0.961 µM).

Compound `C=C(C)[C@H]1Cc2c(ccc3c2O[C@@H]2COc4cc(OC)c(OC)cc4[C@@H]2[C@@H]3OC(=O)C2=CC(C)(C)N([O])C(C)(C)C2)O1` has an IC50 ([1]; kbvin) of 0.299 µg/mL (≈ 0.518 µM), an IC50 (KB; kb) of 0.427 µg/mL (≈ 0.74 µM) and an IC50 (DU-145; du-145) of 0.322 µg/mL (≈ 0.558 µM). The IC50 (A549; a549) was 0.578 µg/mL (≈ 1 µM).

For `C=C(C)[C@H]1Cc2c(ccc3c2O[C@@H]2COc4cc(OC)c(OC)cc4[C@@H]2C3=O)O1` [ROTENONE], the IC50 [1, 2] was 0.595 µg/mL (≈ 1.51 µM), the IC50 (KB; [3]) was 0.513 µg/mL (≈ 1.3 µM) and the IC50 (DU-145; [4]) was 0.465 µg/mL (≈ 1.18 µM). The IC50 (A549; Homo sapiens, A549, read-out: IC50) was 0.901 µg/mL (≈ 2.28 µM).

For `C=C(C)[C@H]1Cc2c(ccc3c2O[C@@H]2COc4cc(OC)c(OC)cc4[C@@H]2[C@@H]3OC(=O)[C@@H](NC(=O)OC2CC(C)(C)N([O])C(C)(C)C2)C(C)C)O1`, the IC50 ([1]; kbvin) was 0.381 µg/mL (≈ 0.549 µM), the IC50 (KB; kb) was 0.497 µg/mL (≈ 0.716 µM) and the IC50 (DU-145; du-145) was 0.451 µg/mL (≈ 0.65 µM). The IC50 (A549; a549) was 0.615 µg/mL (≈ 0.886 µM).

In the case of `C=C(C)[C@H]1Cc2c(ccc3c2O[C@@H]2COc4cc(OC)c(OC)cc4[C@@H]2/C3=N\OC(=O)C2=CC(C)(C)N([O])C2(C)C)O1`, the IC50 ([1]; kbvin) is reported as 0.62 µg/mL (≈ 1.08 µM), the IC50 (KB; kb) is reported as 0.633 µg/mL (≈ 1.1 µM) and the IC50 (DU-145; du-145) is reported as 0.426 µg/mL (≈ 0.74 µM). It also gave an IC50 (A549; a549) of 0.738 µg/mL (≈ 1.28 µM).

`C=C(C)[C@H]1Cc2c(ccc3c2O[C@@H]2COc4cc(OC)c(OC)cc4[C@@H]2[C@@H]3OC(=O)C2CC(C)(C)N([O])C2(C)C)O1` (some centres not stated) showed an IC50 ([1]; kbvin) of 0.241 µg/mL (≈ 0.427 µM), an IC50 (KB; kb) of 0.443 µg/mL (≈ 0.785 µM) and an IC50 (DU-145; du-145) of 0.277 µg/mL (≈ 0.491 µM). For the same compound, the IC50 (A549; a549) was 0.533 µg/mL (≈ 0.944 µM).

`C=C(C)[C@H]1Cc2c(ccc3c2O[C@@H]2COc4cc(OC)c(OC)cc4[C@@H]2[C@@H]3OC(=O)[C@@H](NC(=O)OC2CC(C)(C)N([O])C(C)(C)C2)C(C)CC)O1` (some centres not stated) showed an IC50 ([1]; kbvin) of 0.399 µg/mL (≈ 0.564 µM), an IC50 (KB; kb) of 0.516 µg/mL (≈ 0.729 µM) and an IC50 (DU-145; du-145) of 0.396 µg/mL (≈ 0.559 µM). The IC50 (A549; a549) was 0.649 µg/mL (≈ 0.917 µM).

In the case of `C=C(C)[C@H]1Cc2c(ccc3c2O[C@@H]2COc4cc(OC)c(OC)cc4[C@@H]2[C@@H]3OC(=O)[C@H](Cc2c[nH]c3ccccc23)NC(=O)OC2CC(C)(C)N([O])C(C)(C)C2)O1`, the IC50 ([1]; kbvin) is reported as 0.414 µg/mL (≈ 0.53 µM), the IC50 (KB; kb) is reported as 0.565 µg/mL (≈ 0.724 µM) and the IC50 (DU-145; du-145) is reported as 0.477 µg/mL (≈ 0.611 µM). It also gave an IC50 (A549; a549) of 0.631 µg/mL (≈ 0.808 µM).

Compound `C=C(C)[C@H]1Cc2c(ccc3c2O[C@@H]2COc4cc(OC)c(OC)cc4[C@@H]2/C3=N\OC(=O)C2CC(C)(C)N([O])C(C)(C)C2)O1` has an IC50 ([1]; kbvin) of 0.358 µg/mL (≈ 0.605 µM), an IC50 (KB; kb) of 0.523 µg/mL (≈ 0.884 µM) and an IC50 (DU-145; du-145) of 0.488 µg/mL (≈ 0.825 µM). For the same compound, the IC50 (A549; a549) was 0.651 µg/mL (≈ 1.1 µM).

Work on `C=C(C)[C@H]1Cc2c(ccc3c2O[C@@H]2COc4cc(OC)c(OC)cc4[C@@H]2/C3=N\OC(=O)C2CC(C)(C)N([O])C2(C)C)O1` (some centres not stated) yielded an IC50 ([1]; kbvin) of 0.298 µg/mL (≈ 0.516 µM), an IC50 (KB; kb) of 0.56 µg/mL (≈ 0.969 µM) and an IC50 (DU-145; du-145) of 0.322 µg/mL (≈ 0.557 µM). The IC50 (A549; a549) was 0.471 µg/mL (≈ 0.815 µM).
